US4693977A, “Enzyme immobilization for producing cephalosporin antibiotics” (Queen's University at Kingston, priority 1986, dated 1987)
Where “and” joins values, the source holds several entries; their conditions need not be identical. Equal entries are not always repeated.

Experiments:
[1] = target: T1, cyclase, epimerase and ring expansion enzyme from a cell-free extract of S. clavuligerus (Streptomyces clavuligerus, UniProt P10621); test: Cyclization / ring expansion of peptides with enzymes of S. clavuligerus cell-free extract (SPCFX); type: biochemical
T1 construct: from a cell-free extract of S. clavuligerus; endogenous in cells; host or cells: Streptomyces clavuligerus (cell-free extract / salt-precipitated cell-free extract)
T1 sequence (P10621 1-329): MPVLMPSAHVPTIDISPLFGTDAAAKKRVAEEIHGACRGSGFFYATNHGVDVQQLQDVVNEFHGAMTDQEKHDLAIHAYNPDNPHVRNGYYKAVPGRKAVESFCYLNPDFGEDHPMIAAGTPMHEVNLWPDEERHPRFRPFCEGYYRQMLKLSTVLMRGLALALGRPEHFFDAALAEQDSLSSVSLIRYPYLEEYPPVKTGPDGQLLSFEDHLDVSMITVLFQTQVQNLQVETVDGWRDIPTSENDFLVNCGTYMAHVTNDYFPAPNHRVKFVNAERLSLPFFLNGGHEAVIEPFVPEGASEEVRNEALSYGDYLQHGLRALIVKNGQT
Protocol: (§1) Cyclization activity of enzyme preparations was measured in reaction mixtures containing: bis-δ-(L-α-amino-adipyl-L-cysteinyl-D-valine) (ACV)2 0.306 mM, […] 4 mM, Na ascorbate 2.8 mM, FeSO4 45 μM, tris-HCl buffer 0.05M, pH 7.0, enzyme preparation 0.03-0.3 ml, final volume 0.4 ml. Reaction mixtures were incubated at 20° C. for up to 4 hours and stopped by cooling on ice or by the addition of 0.4 ml methanol.
(§2) Ring expansion activity was followed using the cyclization assay system described above but supplemented with ATP 0.5 mM, α-ketoglutarate 1 mM, KCl 7.5 mM, and MgSO4 7.5 mM. Total volume and incubation conditions were the same as for the cyclization assay.
(§3) To 0.4 ml of reaction mixture were added 0.9 mM of ACV dimer as produced in Example 4, 50.0 mM Tris-HCl pH 7.0 buffer and a mixture of the three enzymes as produced in Example 1 from a cell-free extract of S. clavuligerus, together with 45.0 μM ferrous sulfate and 2.8 mM ascorbic acid as optimized amounts of essential co-factors. DTT was added in excess of the amount required to reduce ACV dimer to ACV monomer. The reaction was continued for approximately 2 hours at 20° C. and then terminated by addition of 0.4 ml methanol to precipitate protein.
(§4) The procedures of Example 7 were repeated using L-aspartyl, L-glutamyl, D-α-aminoadipyl, adipyl, glycyl-L-α-aminoadipyl and N-acetyl-L-α-aminodipyl-containing peptides. […] A prokaryotic system is, therefore, required. Modification of the valinyl moiety, as noted above, has been considered in detail. Substrates modified in the valinyl moiety such as: [drawing 17] where R1 is H, a lower alkyl or functionalized carboxylic group; and R2 is H or a lower alkyl group may be cyclized with carbon-sulfur bond formation with retention of configuration at the beta carbon of the valine analog, leading to isopenicillin N analogs of the type: [drawing 18] Following epimerization to penicillin N analogs of the type: [drawing 19] ring expansion leads to cephalosporin analogs of the type: with transfer of the beta carbon atom attached to C2 of (11) into C2 of the six membered ring.
(§5) Methanol inactivated reaction mixtures (from Examples 7 and 8) were centrifuged at 12,000×g for 5 min to remove precipitated protein before analysis. Reaction mixtures from Example 9 were examined directly. The chromatographic equipment used was: M-6000A pump, UK-6 injector, M-480 variable wavelength director, M-420 data module and Bondapak-C18 column (Rad Pak A in a Z module) as stationary phase. All equipment was from Waters Scientific Co., Mississauga, Ontario. The mobile phase consisted of methanol/0.05 M potassium phosphate buffer, pH 4.0 (5/95). The methanol content of the mobile phase depended upon the particular separation and the source of the material e.g. Examples 7 and 8 or Example 9. A short precolumn (packed with Bondapak C18 /Corasil) was used to guard the main column. UV-absorbing material was detected at 220 nm at a sensitivity of 0.02 AUFS.

[2] = tested on: cyclase, epimerase and ring expansion enzyme from a cell-free extract of S. clavuligerus; test: as above; type: biochemical
Protocol: as §1, §2, §3, §4, §5

[3] = tested on: E. coli Ess + penicillinase; test: Agar diffusion bioassay of ring expansion reaction mixtures, plates with penicillinase; type: cell-based, Escherichia coli; details: for Zone of Inhibition, E. coli Ess + penicillinase: SPCFX, 2h at 20° C., 20 μl; for Cephalosporin C "equivalents" / Zone of Inhibition: immobilized enzyme reactor reaction mixture
Protocol: (§6) 2 ml of the reaction mixture was applied to the immobilized enzyme reactor by means of a peristaltic pump operating at 40 ml/h. Effluent was collected into a 13×100 mm test tube from which the original reaction mixture was pumped, and therefore was recycled continuously through the enzyme reactor. The enzyme reactor was operated at 21° C. and 20 μl aliquots were removed at 15 minute time intervals for analysis for antibiotic formation. (Table I).
(§7) Antibiotic in reaction mixtures was estimated by the agar diffusion method. Cyclization reaction mixtures were bioassayed using Micrococcus luteus ATCC. 9341 and Escherichia coli Ess as indicator organisms. Ring expansion reaction mixtures were bioassayed using E. coli Ess as indicator organism in agar plates supplemented with penicillinase at 2×10^5 units/ml
(§8) The procedure of Example 7 was repeated with ACV analogs in which valine was replaced by alpha-aminobutyric acid (R1 =R2 =H) and allo-isoleucine (R1 =H, R2 =C2 H5), as follows: (AC-aminobutyrate)2 (ACAB)2 and (AC-alloisoleucine)2 (ACI)2 were dissolved in water, neutralized, and lyophilized in 0.1 and 1.0 mg amounts. These peptides were then used as substrates in cyclization and ring expansion assays as follows: One hundred micrograms of (ACV)2 from Example 6 was used as substrate in a cyclization and a ring expansion assay system using 0.1 ml of salt-precipitated cell-free extract as enzyme source in each case. (Final concentration of (ACV)2 is 0.306 mM). Identical cyclization and ring expansion assays were set up in which 100 μg (ACAB)2 or 1.0 mg (ACI)2 replaced the (ACV)2 as substrate and 0.3 ml of salt precipitated cell-free extract was used as enzyme source. No substrate controls were also prepared. The reaction mixtures were incubated for 2h at 20° C. At the end of incubation 20 μl amounts of the cyclization reaction mixtures were bioassayed versus M. luteus and E. coli Ess; 20 μl amounts of the ring expansion reaction mixtures were bioassayed versus E. coli Ess plus and minus penicillinase.

[4] = tested on: Micrococcus luteus ATCC. 9341; test: Agar diffusion bioassay of cyclization reaction mixtures versus M. luteus; type: cell-based; details: cyclization reaction mixture, SPCFX, 2h at 20° C., 20 μl
Text: as §7, §8

Escherichia coli Ess = test: Agar diffusion bioassay of reaction mixtures versus E. coli Ess; type: cell-based; details: for Zone of Inhibition, E. coli Ess: SPCFX, 2h at 20° C., 20 μl
Text: as §7, §8

[5] = target: T2, immobilized SPCFX (cyclase, epimerase, ring expansion enzyme) on DEAE Trisacryl (Streptomyces clavuligerus, UniProt P10621); test: Conversion of ACV on immobilized SPCFX column (immobilized enzyme reactor), HPLC; type: biochemical; details: 1 mg ACV, cycled 1.5 hours at 40 ml per hour through 2 ml immobilized SPCFX
T2 construct: Cell-free extracts were prepared by washing 40-48 h cells of S. clavuligerus; endogenous in cells
T2 sequence (P10621 1-329): T1 sequence (P10621 1-329)
Protocol: DEAE-Trisacryl® resin was loaded into a column 0.4×5.8 cm (packed bed volume, 1 ml), washed with 3×2 ml of the same EDTA buffer, and allowed to drain to dryness by gravity. One milliliter of the salt-precipitated cell-free extract above was applied to the column. The effluent was collected and reapplied to the column twice to ensure complete enzyme loading. The column was washed with 2×1 ml of the same EDTA buffer, drained dry and centrifuged for 3 min. at 500×g to remove excess buffer. This immobilized enzyme reactor was stored at 4° C. when not in use.
as §6
Methanol inactivated reaction mixtures (from Examples 7 and 8) were centrifuged at 12,000×g for 5 min to remove precipitated protein before analysis. Reaction mixtures from Example 9 were examined directly. […] UV-absorbing material was detected at 220 nm at a sensitivity of 0.02 AUFS. […]

[6] = ring expansion reaction mixture
[7] = mixture of the three enzymes, approx. 2 hours at 20° C., without alpha-ketoglutarate

How did the “cyclization of the peptide” value ([1]; procedures of Example 7) turn out when `CC(=O)N[C@@H](CCCC(=O)N[C@@H](CS)C(=O)N[C@@H](C(=O)O)C(C)C)C(=O)O` was run?
The value was “Cyclization was observed”.

What about the “conversion product with SPCFX” value ([2]; via an initial deacylation to ACV) of the same compound?
The value was “penicillin N and isopenicillin N”.

With `CC[C@@H](NC(=O)[C@H](CSSC[C@H](NC(=O)CCC[C@H](N)C(=O)O)C(=O)N[C@H](CC)C(=O)O)NC(=O)CCC[C@H](N)C(=O)O)C(=O)O` [(ACAB)2] as the compound, how does the “formation of penicillinase-insensitive antibiotic” value [3, 6] read?
Its value is “do not form penicillinase-insensitive antibiotic”.

What about the “Zone of Inhibition, E. coli Ess + penicillinase” value [3, 6] of the same compound?
Its value is 0 mm.

And the “Zone of Inhibition, M. luteus” value [4]?
Its value is 8.0 mm.

And the “antibiotic activity equivalent to a solution of cephalosporin C against E. coli Ess” value (Escherichia coli Ess; cyclization reaction mixture)?
Its value is 0.9 µg/mL.

And the “Zone of Inhibition, E. coli Ess” value (Escherichia coli Ess; cyclization reaction mixture)?
The value was 12.5 mm.

What about the “formation of antibiotic affecting E. coli Ess” value (Escherichia coli Ess; [6]) of the same compound?
The value was “nor do they form any antibiotic affecting E. coli Ess”.

And the “Zone of Inhibition, E. coli Ess” value (Escherichia coli Ess; [6])?
Its value is 8.0 mm.

What does the source list for `CC[C@H](C)[C@@H](NC(=O)[C@H](CSSC[C@H](NC(=O)CCC[C@H](N)C(=O)O)C(=O)N[C@@H](C(=O)O)[C@@H](C)CC)NC(=O)CCC[C@H](N)C(=O)O)C(=O)O` [(ACI)2]?
antibiotic activity equivalent to a solution of cephalosporin C, E. coli Ess + penicillinase plates [3, 6]: 0.9 µg/mL; Zone of Inhibition, E. coli Ess + penicillinase [3, 6]: 12.5 mm; Zone of Inhibition, M. luteus [4]: 13.0 mm; antibiotic activity equivalent to a solution of cephalosporin C against E. coli Ess (Escherichia coli Ess; cyclization reaction mixture): 4.85 µg/mL; Zone of Inhibition, E. coli Ess (Escherichia coli Ess; cyclization reaction mixture): 20.0 mm; Zone of Inhibition, E. coli Ess (Escherichia coli Ess; [6]): 20.0 mm

How did the “Cephalosporin C "equivalents"” value ([3]; sample time 0 min) turn out when `CC(C)[C@@H](NC(=O)[C@H](CSSC[C@H](NC(=O)CCC[C@H](N)C(=O)O)C(=O)N[C@@H](C(=O)O)C(C)C)NC(=O)CCC[C@H](N)C(=O)O)C(=O)O` [(ACV)2, bis-δ-(L-α-amino-adipyl-L-cysteinyl-D-valine)] was run?
The value was 0.

And the “Zone of Inhibition” value ([3]; sample time 0 min, 20 μl aliquot)?
The value was 0 mm.

And the “Cephalosporin C "equivalents"” value ([3]; sample time 15 min)?
The value was “.031 μm”.

What about the “Zone of Inhibition” value ([3]; sample time 15 min) of the same compound?
The value was 15 mm.

What about the “Cephalosporin C "equivalents"” value ([3]; sample time 30 min) of the same compound?
The value was “.086 μm”.

And the “Zone of Inhibition” value ([3]; sample time 30 min)?
The value was 19.5 mm.

And the “Cephalosporin C "equivalents"” value ([3]; sample time 45 min)?
Its value is “.062 μm”.

What about the “Zone of Inhibition” value ([3]; sample time 45 min) of the same compound?
Its value is 18.5 mm.

And the “Cephalosporin C "equivalents"” value ([3]; sample time 60 min)?
Its value is “.136 μm”.

What about the “Zone of Inhibition” value ([3]; sample time 60 min) of the same compound?
Its value is 21.5 mm.

What about the “Cephalosporin C "equivalents"” value ([3]; sample time 75 min) of the same compound?
Its value is “.136 μm”.

What about the “Zone of Inhibition” value ([3]; sample time 75 min) of the same compound?
The value was 21.5 mm.

And the “antibiotic activity equivalent to a solution of cephalosporin C, E. coli Ess + penicillinase plates” value [3, 6]?
Its value is 7.6 µg/mL.

What about the “Zone of Inhibition, E. coli Ess + penicillinase” value [3, 6] of the same compound?
Its value is 22 mm and 22.0 mm.

And the “Zone of Inhibition, M. luteus” value [4]?
Its value is 29.0 mm.

What about the “antibiotic activity equivalent to a solution of cephalosporin C against E. coli Ess” value (Escherichia coli Ess; cyclization reaction mixture) of the same compound?
The value was 29.3 µg/mL.

What about the “Zone of Inhibition, E. coli Ess” value (Escherichia coli Ess; cyclization reaction mixture) of the same compound?
The value was 28.0 mm.

What about the “Zone of Inhibition, E. coli Ess” value (Escherichia coli Ess; [6]) of the same compound?
The value was 28.5 mm.

Which “conversion product by bioassay and HPLC” value [1, 7] does the source give for `CC(C)[C@@H](NC(=O)[C@H](CS)NC(=O)CCC[C@H](N)C(=O)O)C(=O)O` [ACV, L-aminoadipyl-L-cysteinyl-D-valine] here?
Its value is “converted to a mixture of isopenicillin N and penicillin N”.

And the “ring expansion to a cephalosporin” value [2, 7]?
Its value is “did not occur”.

And the conversion product ([2]; mixture of the three enzymes, with 1 mM alpha-ketoglutarate)?
Its conversion product is “converted to desacetoxycephalosporin C”.

And the “conversion of ACV into a mixture of isopenicillin N, penicillin N, desacetoxycephalosporin C and desacetylcephalosporin C, by HPLC” value [5]?
Its value is “approximately 90%”.

Which results are given for `CC(C)[C@@H](NC(=O)[C@H](CS)NC(=O)CCCCC(=O)O)C(=O)O` [adipyl-containing peptide]?
cyclization of the peptide ([1]; procedures of Example 7): Cyclization was observed; cyclization to the corresponding penicillin, carboxybutylpenicillin ([1]; procedures of Example 7): ~20%
